Earlier results as cited in US20090022779A1, “Phenytoin Formulations, and Uses Thereof in Wound Healing” (Royal College of Surgeons in Ireland, priority 2004, published 2009).

Conditions: background statement

Row | solubility in water | Compound
1 | soluble | O=C1N=C([O-])NC1(c1ccccc1)c1ccccc1.[Na+] [Phenyloin sodium salt]
2 | only slightly soluble | O=C1NC(=O)C(c2ccccc2)(c2ccccc2)N1 [Phenyloin, 5,5-diphenylimidazolidine-2,4-dione]
